Laboratory results from US20170226139A1, “CRYSTALLINE SALTS OF (Z)-O-OCTADEC-9-EN-1-YL O,O-DIHYDROGEN PHOSPHOROTHIOATE” (priority 2013, published 2017).
Like-named read-outs stand apart in the source and are kept apart here.

Assays:
Human LPA2 = Human LPA2 (Homo sapiens, UniProt Q9HBW0); assay: Competition binding assay, displacement of [3H]LPA from membranes of transfected HEK293 cells; set-up: expressed in transfected cells; host or cells: HEK293 (crude membrane fraction); conditions: 20 nM [3H]LPA; membranes of HEK293 cells transfected with human LPA2
Chain of Human LPA2 (Q9HBW0 whole entry): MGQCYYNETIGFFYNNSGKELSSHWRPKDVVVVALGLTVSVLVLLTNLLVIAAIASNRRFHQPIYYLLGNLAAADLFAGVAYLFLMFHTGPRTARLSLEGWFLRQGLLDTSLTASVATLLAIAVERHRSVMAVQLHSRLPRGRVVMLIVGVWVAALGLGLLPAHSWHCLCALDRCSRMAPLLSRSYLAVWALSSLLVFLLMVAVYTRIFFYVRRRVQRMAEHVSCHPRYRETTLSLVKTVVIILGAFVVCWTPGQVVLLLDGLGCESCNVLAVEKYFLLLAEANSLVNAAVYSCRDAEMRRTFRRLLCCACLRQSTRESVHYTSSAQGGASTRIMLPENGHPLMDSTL
Description: A further study was performed to evaluate whether Rx100 displaces lysophosphatidic acid bound to its receptor. HEK293 cells were transfected with human LPA2 receptor.

Human LPA3 = biological target: T1, Human LPA3 (Homo sapiens, UniProt Q9UBY5); assay: Calcium-mobilization assay (FURA-2), human LPA3 transfected cells; type: cell-based; conditions: for EC50: EC50 [nM], mean
T1 construct: expressed in transfected cells; host or cells: mouse embryonic fibroblasts (MEF) or rat hepatoma RH7777
T1 sequence (Q9UBY5 1-353): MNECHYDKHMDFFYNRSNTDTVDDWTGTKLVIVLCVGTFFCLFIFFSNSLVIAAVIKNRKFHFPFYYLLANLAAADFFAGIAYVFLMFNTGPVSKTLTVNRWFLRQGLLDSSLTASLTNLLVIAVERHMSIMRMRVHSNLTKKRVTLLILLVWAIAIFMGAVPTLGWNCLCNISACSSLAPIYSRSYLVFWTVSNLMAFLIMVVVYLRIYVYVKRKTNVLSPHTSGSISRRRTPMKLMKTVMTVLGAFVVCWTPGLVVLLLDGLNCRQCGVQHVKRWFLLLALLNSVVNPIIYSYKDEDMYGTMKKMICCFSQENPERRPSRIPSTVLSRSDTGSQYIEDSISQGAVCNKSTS
Description: We investigated structure-activity relationships across species, LPAR subtypes and between Rx100 and two known process impurities encountered in manufacture: Rx103 (‘E’ isomer) and Rx200 (oleyl phosphate and impurity, which can be an Rx100 degradant along with oleyl alcohol). Rx100, Rx103, Rx200 and native LPA were investigated at different human LPAR subtypes. In addition, the activity of these compounds was evaluated at LPA2 receptors from the rhesus, rat and mouse species. Human LPA1/2/3 subtypes were transfected into mouse embryonic fibroblasts (MEF) or rat hepatoma cells (RH7777)—both of which are normally non-responsive or null to LPA. Human LPA4 was transfected into Chinese hamster ovary (CHO) cells and LPA5 into the B103 neuroblastoma cell line. […] The B103 rat neuroblastoma cell line is endogenously nonresponsive to LPA but expresses heterologous LPA5 receptors well. […] LPAR activation elicits a G-protein-mediated transient rise in intracellular calcium level that is proportional to the concentration of LPA applied. The intracellular calcium level was quantified by the calcium-selective fluorescent indicator FURA-2 (e.g., increased intracellular calcium surge=increased fluorescence).

Sprague-Dawley rats = assay: Single-dose (and 7-day) subcutaneous toxicity in rats; type: in vivo
Description: In the second phase of the study, animals (n=3/sex/group) received 25 mg/kg/day for seven consecutive days with injections being rotated between two sites. Parameters evaluated included clinical signs, body weight, and gross pathology.

[1] = Short term (24 hour) slurry tests, XRPD of wet and dried solids; type: physicochemical; conditions: minimum 24 hours, 15 solvent systems, 25 and 50° C., wet and dried solids
Description: Second, short term slurry tests were performed. Rx100.L-Lysine salt was slurried for a minimum of 24 hours in 15 different solvent systems at two different temperatures (25 and 50° C.) in an attempt to provide information for crystallization experiments and design of polymorph screening experiments. A 48 position Chemglass reaction block was used for heating and stirring the slurries which were in 2 mL HPLC vials. After the due time, vials were centrifuged and the wet solids were used for X-ray diffraction. […]

[2] = Solubility by incremental addition method in water or simulated formulation solvent
Beagle dogs = assay: Single-dose subcutaneous toxicity in dogs; type: in vivo
Excerpt: One group of one male and one female Beagle dogs received single escalating subcutaneous doses of Rx100.Lysine at 10 and 1 (female)/1.52 (male) mg/kg. […] Parameters evaluated included clinical signs, body weight, and gross pathology. The male and female dog survived until scheduled necropsy on Day 15. Administration of Rx100 had no effect on body weight or general health of the animals. Noteworthy clinical observations were confined to skin and behavior effects. Both animals scratched at the dose site, likely contributing to observations of redness at the dose site. Swelling and a thickened/raised area were also observed during the observation period. Clinical observations were sufficient to warrant the injection of diphenhydramine. […] Following injection of the L-lysine component of the formulation at an independent site, redness, scratching, or swelling was not seen.

## CCCCCCCC/C=C\CCCCCCCCOP(O)(O)=S [Rx100, (Z)—O-octadec-9-en-1-yl O,O-dihydrogen phosphorothioate]
Human LPA2
  displacement of 3H-LPA: displaced 3H-LPA in a concentration-dependent manner
Human LPA3; LPA3 DKO MEF, human
  EC50: 205 nM
Human LPA3; LPA3 RH7777, human
  EC50: 113 nM
Human LPA3; RH7777, read-out: Emax (% of LPA)
  Emax: 71%
Human LPA3; read-out: Emax (% of LPA)
  Emax: 82%

## CCCCCCCC/C=C\CCCCCCCCOP(O)(O)=S [Rx100.L-Lysine, (Z)—O-octadec-9-en-1-yl O,O-dihydrogen phosphorothioate]
Sprague-Dawley rats; Phase I, rats given >50 mg/kg
  necropsy findings: scabs were observed on the skin overlying the injection site
Sprague-Dawley rats; Phase I, single SC dose >50 mg/kg, first 3 days post-dose
  body weight: transient loss of body weight
Sprague-Dawley rats; Phase I, single SC doses of >10 mg/kg, beginning several days post-dose
  skin findings: produced scabs
Sprague-Dawley rats; Phase II, 25 mg/kg/day for seven consecutive days
  body weight: transient body weight loss was followed by rebound
Sprague-Dawley rats; Phase II, 25 mg/kg/day for seven days
  necropsy findings: small organ size was noted for the epididymis, prostate, seminal vesicle, and testis of all three males
Sprague-Dawley rats; Phase II, 25 mg/kg/day for seven days, first two dosing sites
  dosing site findings: scabs developed with delayed onset
[1]; listed as Rx100.L-Lysine salt
  Form by XRPD after short term slurry: no change in form
[1]; listed as Rx100 crystalline sesqui-L-lysine salt
  Form by XRPD after short term slurry: do not change in form
[2]
  Solubility in water: soluble in water
[2]; 3% polyethylene glycol 200, 1% ethanol, 10 mM monosodium phosphate, balance water
  Solubility in the simulated formulation solvent: soluble
[2]; listed as L-Lysine salt
  Solubility in water: soluble
Beagle dogs; 1 mg/kg dose
  clinical observations at dose sites: persistent scratching and swelling at dose sites
  macroscopic and microscopic findings at dose sites: No remarkable findings
Beagle dogs; Rx100 formulation, beagle dogs
  tolerability of subcutaneous injection: not tolerated
Beagle dogs; injection site A (10 mg/kg), both animals
  microscopic examination of injection site: chronic-active inflammation with necrosis and vascular thrombus formation
Beagle dogs; single escalating SC doses 10 and 1/1.52 mg/kg
  effect on body weight or general health: no effect
